US20110207807A1, “NEW USE FOR HOMOISOFLAVONE OR A SALT THEREOF” (Catholic University Industry Academy Cooperation Foundation, priority 2008, published 2011)

How the values were obtained:
IL-6 = test: UV-induced IL-6 mRNA expression in HaCaT cells (real-time PCR); type: cell-based, human; conditions: 1 μg/mL, UV 100 J/m^2, compared to control group (FIG. 3)
Experimental: (§1) 1×10^6 HaCaT cells were inoculated on a 100-mm culture dish and cultured in DMEM containing 10% FBS for 24 hour. Then, the cells were starved by culturing for 24 hours in DMEM containing 1% FBS. Then, after treating with homoisoflavanone at 1 μg/mL for 1 hour, the cells were washed 3 times with PBS and irradiated with UV at 100 J/m^2 to induce increase of cytokines. Immediately after the UV radiation, the cells were washed again with PBS and further cultured for 2 or 5 hours in DMEM containing 1% FBS which had been treated with homoisoflavanone at the same concentration.
(§2) After extracting RNA from the cells of each test group using TRIzol (Invitrogen, USA), cDNA was prepared by carrying out PCR (PTC-225 Peltier thermal cycler, MJ Research, USA). Then, the mRNA expression of IL-6, IL-8 and TNF-α was measured through real-time PCR (Roter Gene 6000 series, Corbett Research, Australia) using the cDNA as template and using commercially available IL-6, IL-8 and TNF-α primers. The expression level of the pro-inflammatory cytokines was compared relative to the non-treated group.

[1] = system: intracellular reactive oxygen species (ROS); test: Intracellular ROS induced by UV radiation (DCFH-DA fluorescence microscopy); type: cell-based, human; conditions: HaCaT cells, 1 μg/mL, UV 100 J/m^2, compared to UV only (FIG. 1)
Experimental: Human keratinocyte cell line HaCaT cells (acquired from Professor N. Fusenig of the German Cancer Research Center) were inoculated on a 60-mm culture dish (5×10^5 cells; 1×10^6 cells for a 100-mm culture dish) and cultured for 24 hours in Dulbecco's modified Eagle's medium (DMEM) containing 10% fetal bovine serum (FBS).
Then, after treating with homoisoflavanone of Chemical Formula 1 (R=OCH3) at a concentration of 1 μg/mL for 1 hour, the cells were washed 3 times with phosphate buffered saline (PBS). In order to generate reactive oxygen species (ROS), the cells were irradiated with UV at 100 J/m^2 using a UV lamp (FSX 24 T12/UVB/HO, Pansol™, USA). Immediately after the UV radiation, the cells were washed again with PBS and further cultured for 4 hours in DMEM containing 1% FBS, while treating with homoisoflavanone at the same concentration. Then, after treating for 30 minutes in Hank's balanced salt solution (HBSS, BioWhittaker, Cambrex, USA) with 25 μM 2,7-dichlorofluorescein diacetate (DCFH-DA), the cells were washed 3 times with PBS.
Thereafter, the ROS induced by UV were measured using a fluorescence microscope (Carl Zeiss, USA). Test groups were subdivided as follows: non-treated group—treated with neither UV nor homoisoflavanone; test group A—treated with homoisoflavanone only; control group—treated with UV only; test group B—treated with UV and homoisoflavanone.

hairless mouse (SKH-1) = test: Ear edema induced by phorbol 12-myristate 13-acetate in animal model; type: in vivo
Experimental: In order to confirm the in vitro test result on the human keratinocytes HaCaT cells in an animal model, experiment was performed as follows using hairless mouse (SKH-1). Test groups are as follows: non-treated group—treated not with phorbol 12-myristate 13-acetate but only with acetone (TPA); test group A—treated with 1 μg/10 μL homoisoflavanone or 50 μg/10 μL dexamethasone; control group (TPA)-treated with 100 μM phorbol 12-myristate 13-acetate; test group B—treated with 1 μg/10 μL homoisoflavanone or 50 μg/10 μL dexamethasone as well as 100 μM phorbol 12-myristate 13-acetate.
One hour before treating with phorbol 12-myristate 13-acetate, 1 μg/10 μL homoisoflavanone or 50 μg/10 μL dexamethasone was applied on the front and rear parts of the ear, 5 μL each. Then, 6 hour after the application of phorbol 12-myristate 13-acetate, ear thickness and weight were measured.
In order to investigate overall change in the skin tissue, hematoxylin-eosin staining was carried out.

TNF-α = test: UV-induced TNF-α mRNA expression in HaCaT cells (real-time PCR); type: cell-based, human; conditions: 1 μg/mL, UV 100 J/m^2, compared to control group (FIG. 3)
Experimental: as §1, §2

BALB/c mouse = test: Ear edema induced by arachidonic acid in animal model; type: in vivo; conditions: topical 1 μg/10 μL homoisoflavanone or 50 μg/10 μL dexamethasone 1 h before arachidonic acid 100 mg/mL 10 μL, 1 hour after AA, vs AA control (FIG. 5a, 5b)
Experimental: Experiment was carried out as follows using BALB/c mouse. Test groups are as follows: non-treated group—treated not with arachidonic acid (AA) but only with acetone; control group (AA)-treated with arachidonic acid; test group A—treated with 1 μg/10 μL homoisoflavanone or 50 μg/10 μL dexamethasone as well as 100 mg/mL 10 μL arachidonic acid.
One hour before treating with arachidonic acid, 1 μg/10 μL homoisoflavanone or 50 μg/10 μL dexamethasone was applied on the front and rear parts of the ear, 5 μL each. Then, 1 hour after applying 100 mg/mL 10 μL arachidonic acid, ear thickness and weight were measured.

cPLA2 = test: UV-induced cPLA2 phosphorylation in HaCaT cells (Western blot); type: cell-based, human; conditions: 1 μg/mL, UV (FIG. 2b)
Experimental: In order to identify the intracellular factors affecting COX-2 expression that are affected by homoisoflavanone, Western blotting was carried out in the same manner as in Example 2-1 except for treating with homoisoflavanone at 1 μg/mL, irradiating UV for 45 minutes and using rabbit anti-p-cytosolic phospholipase A2 (cPLA2) antibody, rabbit anti-cPLA2 antibody, rabbit anti-ERK antibody, rabbit anti-p-ERK antibody, rabbit anti-p38 antibody or rabbit anti-p-p38 antibody and using anti-rabbit IgG-HRP conjugation antibody (Zymed) as secondary antibody. Positive control groups were treated with 1 μM SB203580 (A.G. Scientific, Inc.) as p38 inhibitor or 10 μM PD98059 (A.G. Scientific, Inc.) as MEK 1 inhibitor instead of homoisoflavanone.

NF-κB = test: UV-induced NF-κB nuclear translocation in HaCaT cells (immunocytochemical staining); type: cell-based, human; conditions: 1 μg/mL, UV 100 J/m^2, 4 hours (FIG. 2e)
Experimental: In order to investigate whether the transcription factor NF-κB is activated, human keratinocytes HaCaT cells were immunocytochemically stained as follows.
After inoculating the cells on a 14-mm culture slide, the cells were cultured in DMEM containing 10% FBS for 24 hour. Then, the cells were starved by culturing for 24 hours in DMEM containing 1% FBS. Then, after treating with homoisoflavanone at 1 μg/mL for 1 hour, the cells were washed 3 times with PBS and irradiated with UV at 100 J/m^2. Immediately after the UV radiation, the cells were washed again with PBS and further cultured for 4 hours in DMEM containing 1% FBS while treating with homoisoflavanone at the same concentration. Then, the cells were fixed with methanol for 5 minutes and then subjected to immunocytochemical staining.
The fixed cells were blocked with 10% normal goat serum and then washed 3 times with PBS. Then, after fluorescence staining NF-κB using rabbit anti-NF-κB antibody (SantaCruz, USA) and Alexa 488-conjugated anti-rabbit IgG secondary antibody (Invitrogen, USA), counter staining was carried out using Hoechst (Sigma, St. Louis, Mo.).

[2] = topical 1 μg/10 μL homoisoflavanone or 50 μg/10 μL dexamethasone 1 h before 100 μM TPA, 6 hour after TPA, vs TPA control (FIG. 4a, 4b)

## COc1ccc(CC2COc3cc(O)cc(O)c3C2=O)cc1O (stereo not shown) [homoisoflavanone]
IL-6
  expression of IL-6 (mRNA) induced by UV: decreased expression
[1]
  generation of intracellular ROS induced by UV: decreased significantly
Hairless mouse (SKH-1); 1 μg/10 μL homoisoflavanone or 50 μg/10 μL dexamethasone plus TPA (FIG. 4c)
  hyperplasia in the epidermis (hematoxylin-eosin staining): significantly reduced
Hairless mouse (SKH-1); [2]
  ear thickness: decrease
  ear weight: decrease
TNF-α
  expression of TNF-α (mRNA) induced by UV: decreased expression
BALB/c mouse
  ear thickness: decrease
  ear weight: decrease
cPLA2
  phosphorylation of cPLA2: inhibited
NF-κB
  migration of NF-κB into the nucleus induced by UV radiation: inhibits
